These results are taken from patent publication US8946292B2, “Formulations of low dose diclofenac and beta-cyclodextrin” (Javelin Pharmaceuticals, Inc., priority 2006, dated 2015).

For the assay, the system named is moderate-to-severe post-surgical pain (post-surgical dental pain). The experiment in a line: Randomized, double-blind, single-dose, placebo- and comparator-controlled study of pain relief by administered dose (bolus IV). The class given is in vivo, human. The note with it: 30 mg single bolus IV dose (comparator). As for the experimental part:
A 336-patient, seven treatment arm, randomized, double-blind, single-dose, and placebo- and comparator-controlled, parallel-group study was conducted. Patients were randomly assigned to receive a single dose of either diclofenac sodium solubilized with hydroxypropyl-beta-cyclodextrin (hereinafter “DIC”), ketorolac tromethamine, or placebo.
Bolus IV injectable 2 ml solutions were prepared by solubilizing diclofenac sodium with hydroxypropyl-beta-cyclodextrin. […]
Pain was assessed by each patient at Baseline (0 hour: Visual Analog Scale (VAS) and categorical pain intensity only), at 5, 15, 30 and 45 minutes, and at 1, 1.5, 2, 3, 4, 5, 6, 7, 8, 10, 12 and 24 hours after administration of study medication and immediately prior to the first dose of rescue medication. At each post-dose time period, levels of pain intensity (categorical and VAS) and pain relief (categorical and VAS) was assessed by each patient. […]
The presence of a dose-response was tested with a step-down testing procedure. Total pain relief (TOTPAR), peak pain relief, pain intensity difference (SPID), summed peak reduction in pain intensity difference (SPRID), and patient global evaluation was analyzed with analysis of variance (ANOVA) with treatment, center, and baseline categorical pain intensity as factors. […] A 95% confidence interval for each estimated median time to event was calculated. […]

In the case of `O=C(c1ccccc1)c1ccc2n1CCC2C(=O)O` (centres unmarked) [ketorolac, ketorolac tromethamine], the “% Maximum Effect (TOTPAR)” value is reported as 100%. The “TOTPAR (Sum of Pain Relief VAS 0-100 mm ratings 0-6 hours)” value (patients, 0-6 hours) amounted to 400.3.
